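Cells were grown in 96-well plates and exposed to each compound for 48 hours at five concentrations; endpoints were interpolated linearly between bracketing concentrations, or set to the highest concentration if not reached. TGI is the concentration that stops growth completely.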
Tests used:
Experiment in all cases: DTP human tumour cell line panel, 48 h
COLO 205 colon = tested on: COLO 205 colon
OVCAR-8 ovarian = tested on: OVCAR-8 ovarian
UACC-62 melanoma = tested on: UACC-62 melanoma
HOP-92 NSCLC = tested on: HOP-92 NSCLC
BT-549 breast = tested on: BT-549 breast
HS 578T breast = tested on: HS 578T breast
A498 renal = tested on: A498 renal
ACHN renal = tested on: ACHN renal
SF-268 CNS = tested on: SF-268 CNS
HCT-116 colon = tested on: HCT-116 colon
NCI/ADR-RES ovarian = tested on: NCI/ADR-RES ovarian
MALME-3M melanoma = tested on: MALME-3M melanoma
SK-OV-3 ovarian = tested on: SK-OV-3 ovarian
OVCAR-5 ovarian = tested on: OVCAR-5 ovarian
TK-10 renal = tested on: TK-10 renal
UACC-257 melanoma = tested on: UACC-257 melanoma
HCT-15 colon = tested on: HCT-15 colon
MDA-N = tested on: MDA-N
PC-3 prostate = tested on: PC-3 prostate
OVCAR-3 ovarian = tested on: OVCAR-3 ovarian
SW-620 colon = tested on: SW-620 colon
SK-MEL-2 melanoma = tested on: SK-MEL-2 melanoma
786-0 renal = tested on: 786-0 renal
HCC-2998 colon = tested on: HCC-2998 colon
HL-60(TB) leukemia = tested on: HL-60(TB) leukemia
A549 NSCLC = tested on: A549 NSCLC
SF-295 CNS = tested on: SF-295 CNS
RPMI-8226 leukemia = tested on: RPMI-8226 leukemia
K-562 leukemia = tested on: K-562 leukemia
NCI-H226 lung = tested on: NCI-H226 lung
EKVX NSCLC = tested on: EKVX NSCLC
CAKI-1 renal = tested on: CAKI-1 renal
SF-539 CNS = tested on: SF-539 CNS
NCI-H23 lung = tested on: NCI-H23 lung
HOP-62 NSCLC = tested on: HOP-62 NSCLC
OVCAR-4 ovarian = tested on: OVCAR-4 ovarian
M14 melanoma = tested on: M14 melanoma
SR leukemia = tested on: SR leukemia
MDA-MB-435 = tested on: MDA-MB-435
CCRF-CEM leukemia = tested on: CCRF-CEM leukemia
MOLT-4 leukemia = tested on: MOLT-4 leukemia
U251 CNS = tested on: U251 CNS
NCI-H460 lung = tested on: NCI-H460 lung
MDA-MB-231 breast = tested on: MDA-MB-231 breast
RXF 393 renal = tested on: RXF 393 renal
UO-31 renal = tested on: UO-31 renal
NCI-H522 lung = tested on: NCI-H522 lung
IGROV1 ovarian = tested on: IGROV1 ovarian
SN12C renal = tested on: SN12C renal
MCF7 breast = tested on: MCF7 breast
SK-MEL-5 melanoma = tested on: SK-MEL-5 melanoma
HT29 colon = tested on: HT29 colon
KM12 colon = tested on: KM12 colon
SNB-75 CNS = tested on: SNB-75 CNS
DU-145 prostate = tested on: DU-145 prostate
SNB-19 CNS = tested on: SNB-19 CNS
T-47D breast = tested on: T-47D breast
SK-MEL-28 melanoma = tested on: SK-MEL-28 melanoma
LOX IMVI melanoma = tested on: LOX IMVI melanoma

Measured: TGI

COc1ccc(CCn2cnc3ccccc32)cc1
not listed: T-47D breast | SK-MEL-28 melanoma | LOX IMVI melanoma
> 100 µM: all other assays above

CC1=NOC2(C1)/C(=N/O)CCC/C2=N\O (stereo unspecified)
not listed: HOP-92 NSCLC | A498 renal | HL-60(TB) leukemia | DU-145 prostate
> 100 µM: all other assays above

Reference: PubChem BioAssay (NCI)
